Experimental data: patent US20040057908A1, “Oral compositions and use thereof” (priority 2003, published 2004)
Converted amounts (≈) assume the structure as drawn. Read-outs that look alike come from different tables or passages of the source.

Legend:
GTF C [1] = biological target: T1, GTF C (Streptococcus mutans serotype c, UniProt P13470); assay: GTF activity in solution, GTF C; assay type: biochemical; conditions: mean (SD)
T1 construct: The supernatant was carefully collected as the source of GTF C; made in house; host or cells: Streptococcus mutans WHB 410 (endogenous gtfC; urea/Triton extract of washed cells, hydroxyapatite chromatography)
Method: (§1) Glucosyltransferase activity was measured by the incorporation of [^14C-glucose] from labeled sucrose (NEN Research Products, Boston, Mass.) into glucans (Germaine et al., 1974; Venkitaraman et al., 1995). The GTF enzyme added to each sample for all assays was equivalent to the amount required to incorporate 1.0-1.5 μmol of glucose over the four hours reaction (1.0-1.5 units).
(§2) For solution assays, purified GTF B, C, D and Ss were mixed with a two-fold dilution series of the test compounds (concentration ranging from 125 to 500 μM) and incubated with [^14C-glucose]-sucrose substrate (0.2 μCi/ml) (200.0 mmol/l sucrose, 40 μmol/l dextran 9000, 0.02% sodium azide in adsorption buffer—50 mM KCl, 1.0 mM KPO4, 1.0 mM CaCl2, 0.1 mM MgCl2−pH=6.5) to reach a final concentration of 100 mmol/l sucrose (200 μl final volume). For the control, the same reaction was carried out, where ethanol:DMSO (final concentration of 7.5% and 1.25%, v/v) or ethanol (final concentration of 5%, v/v) replaced the test agent solutions. The samples were incubated 37° C. with rocking for 4 h. After incubation, ice-cold ethanol (1.0 ml) was added and the samples were stored for 18 h, 4° C. for precipitation of glucans. Radiolabeled glucan was determined by scintillation counting (Germaine et al., 1974; Venkitaraman et al., 1995).

GTF C [2] = biological target: T1, GTF C; assay: GTF activity adsorbed onto sHA surface, GTF C; assay type: biochemical; conditions: mean (SD)
Method: as §1
(§3) For surface assays, the GTFs were adsorbed to hydroxyapatite beads coated with clarified whole saliva (free of GTF activity), as detailed elsewhere (Koo et al., 2000c; Schilling and Bowen, 1988, Venkitaraman et al., 1995). The saliva-coated hydroxyapatite (sHA) beads were exposed to sufficient enzyme to saturate the surface as determined experimentally. Following the adsorption of the enzyme, the beads were washed 3 times with buffer to remove the loosely bound material and exposed to 300 μl of the two-fold dilution series of test compounds (or control) for 30 min. at the same concentrations described above. The beads were washed and exposed to 300 μl [^14C-glucose]-sucrose substrate (100.0 mmol/l sucrose, final concentration). The radiolabeled glucan formed was collected and quantified by scintillation counting (Germaine et al., 1974; Venkitaraman et al., 1995). All the solution and surface assays were done in quadruplicate in at least 3 different experiments.

GTF Ss [3] = biological target: T2, GTF Ss (Streptococcus sanguinis, UniProt A3CLJ9); assay: GTF activity in solution, GTF Ss; assay type: biochemical, S. sanguinis; conditions: mean (SD)
Method: as §1, §2

GTF D [4] = biological target: T3, GTF D (Streptococcus mutans serotype c, UniProt P49331); assay: GTF activity adsorbed onto sHA surface, GTF D; assay type: biochemical; conditions: mean (SD)
T3 construct: made in house; host or cells: Streptococcus milleri NH5 (culture supernatant)
Method: as §1, §3

[5] = system: Mutans Streptococci Strains; assay: MIC and MBC, broth dilution, all strains stated together; assay type: cell-based, S. mutans (GS-5 and UA159) and S. sobrinus 6715
Method: (§4) The minimum inhibitory concentration (MIC) and minimum bactericidal concentration (MBC) were determined for each test compound according to the National Committee for Clinical Laboratory Standards guidelines (Tentative standard M26-T, 1992; NCCLS Publication No. M7-A5, 2000) and Koo et al. (2000b). The broth microdilution and macrodilution methods (in TSB) were used for the antibacterial tests. The starting inoculum was 5×10^5 CFU/ml and the concentrations of test compounds ranged from 15.6 to 500 μM (two-fold dilutions). The MICs and MBCs were determined in quadruplicate in at least 3 different experiments.

[6] = system: Streptococcus mutans UA 159; assay: MIC and MBC, broth dilution; assay type: cell-based
Method: as §4

[7] = system: Streptococcus sobrinus 6715; assay: MIC and MBC, broth dilution; assay type: cell-based
Method: as §4

[8] = system: Streptococcus mutans GS-5; assay: MIC and MBC, broth dilution; assay type: cell-based
Method: as §4

GTF B [9] = biological target: T4, GTF B (Streptococcus mutans serotype c, UniProt P08987); assay: GTF activity adsorbed onto saliva-coated hydroxyapatite (sHA) surface, GTF B; assay type: biochemical; conditions: mean (SD)
T4 construct: made in house; host or cells: Streptococcus milleri KSB8 (culture supernatant)
Method: as §1, §3

GTF Ss [10] = biological target: T2, GTF Ss; assay: GTF activity adsorbed onto sHA surface, GTF Ss; assay type: biochemical, S. sanguinis; conditions: mean (SD)
Method: as §1, §3

GTF B [11] = biological target: T4, GTF B; assay: GTF activity in solution, GTF B; assay type: biochemical; conditions: mean (SD)
Method: as §1, §2

GTF D [12] = biological target: T3, GTF D; assay: GTF activity in solution, GTF D; assay type: biochemical; conditions: mean (SD)
Method: as §1, §2

streptococcal GTFs = system: T5, streptococcal GTFs; assay: GTF activity in solution, all GTFs (B, C, D, Ss) stated together; assay type: biochemical, Streptococcus mutans, S. sanguinis; conditions: 125 to 500 μM; solution and surface not told apart
T5 construct: Streptococcus milleri KSB8, which harbors the gtfB gene from S. mutans GS-5 (for GTF B production)
Method: The GTF enzyme added to each sample for all assays was equivalent to the amount required to incorporate 1.0-1.5 μmol of glucose over the four hours reaction (1.0-1.5 units).
The samples were incubated 37° C. with rocking for 4 h.
For this assay, a one-way layout experimental design was used in 4×2×7 factorial scheme (enzyme×state×dose). An analysis of variance was carried out and qualitative treatments were compared using Tukey test at level of 5% of significance (p<0.05). A non-linear regression was applied in order to evaluate effects of different concentrations.

[13] = all strains tested (S. mutans GS-5, UA159, S. sobrinus 6715), read-out: MIC
[14] = Streptococcus mutans, all strains tested (S. mutans GS-5, UA159, S. sobrinus 6715), read-out: MIC

T4 sequence (P08987 35-1476): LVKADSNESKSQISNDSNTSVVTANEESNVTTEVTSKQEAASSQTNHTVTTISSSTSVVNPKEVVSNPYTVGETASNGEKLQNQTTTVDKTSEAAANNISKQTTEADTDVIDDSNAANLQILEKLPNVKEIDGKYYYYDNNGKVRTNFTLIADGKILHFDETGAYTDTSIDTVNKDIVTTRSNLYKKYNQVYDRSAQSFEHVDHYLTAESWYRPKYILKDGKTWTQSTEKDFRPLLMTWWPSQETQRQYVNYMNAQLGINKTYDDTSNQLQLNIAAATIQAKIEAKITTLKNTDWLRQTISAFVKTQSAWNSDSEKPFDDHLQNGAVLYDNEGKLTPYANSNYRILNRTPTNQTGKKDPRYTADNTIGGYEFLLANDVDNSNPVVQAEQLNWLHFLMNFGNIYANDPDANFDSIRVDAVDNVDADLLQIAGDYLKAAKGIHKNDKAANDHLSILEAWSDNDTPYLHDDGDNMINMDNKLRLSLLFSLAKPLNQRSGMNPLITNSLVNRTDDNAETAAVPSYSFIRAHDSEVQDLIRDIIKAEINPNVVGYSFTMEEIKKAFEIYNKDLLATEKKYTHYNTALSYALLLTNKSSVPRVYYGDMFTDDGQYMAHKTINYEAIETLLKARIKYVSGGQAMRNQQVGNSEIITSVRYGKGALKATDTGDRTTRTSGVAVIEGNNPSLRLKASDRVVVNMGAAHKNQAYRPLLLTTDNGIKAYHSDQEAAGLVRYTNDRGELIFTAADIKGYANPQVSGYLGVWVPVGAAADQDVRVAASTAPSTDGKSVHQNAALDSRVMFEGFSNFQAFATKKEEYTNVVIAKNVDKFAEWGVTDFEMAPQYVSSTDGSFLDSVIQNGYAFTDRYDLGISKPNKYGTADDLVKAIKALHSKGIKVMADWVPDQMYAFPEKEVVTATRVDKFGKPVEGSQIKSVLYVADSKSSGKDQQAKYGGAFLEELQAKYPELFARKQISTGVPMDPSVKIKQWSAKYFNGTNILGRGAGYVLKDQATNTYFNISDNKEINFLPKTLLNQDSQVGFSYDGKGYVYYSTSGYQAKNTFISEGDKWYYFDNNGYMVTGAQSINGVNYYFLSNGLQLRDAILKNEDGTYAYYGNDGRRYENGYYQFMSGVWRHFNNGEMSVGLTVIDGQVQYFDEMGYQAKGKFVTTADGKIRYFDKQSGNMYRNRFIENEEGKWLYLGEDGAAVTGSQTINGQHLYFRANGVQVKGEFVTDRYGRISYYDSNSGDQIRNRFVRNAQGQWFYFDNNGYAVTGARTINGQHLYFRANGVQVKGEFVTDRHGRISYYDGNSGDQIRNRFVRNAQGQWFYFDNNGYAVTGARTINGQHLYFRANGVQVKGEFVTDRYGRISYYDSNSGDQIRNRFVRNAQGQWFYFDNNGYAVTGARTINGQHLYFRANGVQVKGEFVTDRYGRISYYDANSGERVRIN
T1 sequence (P13470 35-1455): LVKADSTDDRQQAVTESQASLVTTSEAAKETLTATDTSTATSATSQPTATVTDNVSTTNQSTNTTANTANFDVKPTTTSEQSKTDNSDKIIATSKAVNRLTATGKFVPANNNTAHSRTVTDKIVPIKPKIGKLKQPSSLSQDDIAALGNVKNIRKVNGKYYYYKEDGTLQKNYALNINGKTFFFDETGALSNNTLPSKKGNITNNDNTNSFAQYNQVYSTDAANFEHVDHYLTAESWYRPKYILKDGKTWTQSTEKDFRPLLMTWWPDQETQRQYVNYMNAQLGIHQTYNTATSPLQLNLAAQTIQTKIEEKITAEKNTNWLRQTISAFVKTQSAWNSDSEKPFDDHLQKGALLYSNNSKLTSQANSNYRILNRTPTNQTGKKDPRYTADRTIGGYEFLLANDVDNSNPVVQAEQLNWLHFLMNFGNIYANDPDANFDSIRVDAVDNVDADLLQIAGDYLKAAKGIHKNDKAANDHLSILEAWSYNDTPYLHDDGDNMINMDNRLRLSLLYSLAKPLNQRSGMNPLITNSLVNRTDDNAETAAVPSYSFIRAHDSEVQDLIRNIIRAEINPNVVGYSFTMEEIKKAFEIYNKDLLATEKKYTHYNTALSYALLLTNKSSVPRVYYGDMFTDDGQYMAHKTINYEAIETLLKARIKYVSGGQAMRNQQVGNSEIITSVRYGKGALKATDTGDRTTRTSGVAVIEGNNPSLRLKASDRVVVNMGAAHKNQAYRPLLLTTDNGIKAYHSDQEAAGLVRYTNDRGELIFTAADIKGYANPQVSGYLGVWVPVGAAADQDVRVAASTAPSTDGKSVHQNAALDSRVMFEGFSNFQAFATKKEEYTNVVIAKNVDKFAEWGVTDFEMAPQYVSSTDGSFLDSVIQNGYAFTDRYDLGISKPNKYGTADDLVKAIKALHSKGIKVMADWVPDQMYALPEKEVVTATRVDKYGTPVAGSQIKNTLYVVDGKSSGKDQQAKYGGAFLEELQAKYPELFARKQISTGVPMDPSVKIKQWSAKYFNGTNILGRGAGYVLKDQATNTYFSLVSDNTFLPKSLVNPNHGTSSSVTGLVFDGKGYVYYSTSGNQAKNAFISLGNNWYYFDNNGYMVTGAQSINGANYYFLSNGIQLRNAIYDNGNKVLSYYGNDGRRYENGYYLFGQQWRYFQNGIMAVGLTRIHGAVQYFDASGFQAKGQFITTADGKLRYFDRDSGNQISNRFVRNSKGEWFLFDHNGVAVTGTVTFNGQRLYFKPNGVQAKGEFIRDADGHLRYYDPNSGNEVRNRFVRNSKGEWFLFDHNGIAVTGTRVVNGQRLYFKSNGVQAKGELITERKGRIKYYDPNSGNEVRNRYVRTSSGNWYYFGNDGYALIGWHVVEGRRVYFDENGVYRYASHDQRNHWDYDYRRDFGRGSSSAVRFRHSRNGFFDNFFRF
T3 sequence (P49331 whole entry): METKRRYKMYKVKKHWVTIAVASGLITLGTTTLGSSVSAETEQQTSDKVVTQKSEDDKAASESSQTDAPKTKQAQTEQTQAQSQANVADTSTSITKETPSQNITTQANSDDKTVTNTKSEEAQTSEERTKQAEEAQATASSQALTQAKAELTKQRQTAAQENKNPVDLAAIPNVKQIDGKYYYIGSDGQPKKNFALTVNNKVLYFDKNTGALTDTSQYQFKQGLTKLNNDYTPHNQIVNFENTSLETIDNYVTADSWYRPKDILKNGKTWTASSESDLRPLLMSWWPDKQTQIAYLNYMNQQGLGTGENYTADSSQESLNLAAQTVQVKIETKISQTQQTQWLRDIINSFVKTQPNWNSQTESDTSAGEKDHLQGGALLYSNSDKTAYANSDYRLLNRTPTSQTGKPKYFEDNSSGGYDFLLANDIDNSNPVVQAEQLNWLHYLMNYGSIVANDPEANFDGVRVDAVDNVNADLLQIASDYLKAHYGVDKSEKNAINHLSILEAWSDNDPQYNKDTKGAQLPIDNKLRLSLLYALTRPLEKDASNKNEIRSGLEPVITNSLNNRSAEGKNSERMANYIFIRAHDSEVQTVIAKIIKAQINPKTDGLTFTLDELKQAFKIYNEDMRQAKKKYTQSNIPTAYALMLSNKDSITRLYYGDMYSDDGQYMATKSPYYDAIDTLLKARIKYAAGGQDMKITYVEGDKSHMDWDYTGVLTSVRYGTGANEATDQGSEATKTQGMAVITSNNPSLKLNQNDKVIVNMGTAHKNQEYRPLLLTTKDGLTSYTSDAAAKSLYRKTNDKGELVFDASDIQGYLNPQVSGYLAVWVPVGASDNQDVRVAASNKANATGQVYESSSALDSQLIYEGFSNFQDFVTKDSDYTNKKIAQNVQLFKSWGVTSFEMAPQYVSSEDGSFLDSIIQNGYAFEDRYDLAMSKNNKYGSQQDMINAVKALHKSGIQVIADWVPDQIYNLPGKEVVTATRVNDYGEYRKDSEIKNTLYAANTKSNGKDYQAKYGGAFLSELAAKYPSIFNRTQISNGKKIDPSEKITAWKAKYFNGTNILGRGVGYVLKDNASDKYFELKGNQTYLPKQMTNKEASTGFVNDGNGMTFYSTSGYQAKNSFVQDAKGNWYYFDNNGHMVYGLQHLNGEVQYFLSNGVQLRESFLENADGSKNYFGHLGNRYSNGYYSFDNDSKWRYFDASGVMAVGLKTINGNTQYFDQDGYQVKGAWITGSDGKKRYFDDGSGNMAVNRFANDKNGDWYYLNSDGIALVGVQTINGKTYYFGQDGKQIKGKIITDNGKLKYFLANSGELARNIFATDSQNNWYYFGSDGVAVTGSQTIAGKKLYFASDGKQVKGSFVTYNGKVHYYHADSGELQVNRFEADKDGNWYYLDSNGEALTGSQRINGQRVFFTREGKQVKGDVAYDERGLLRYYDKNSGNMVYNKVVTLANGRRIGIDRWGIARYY

For `CC(=O)O[C@H]1C(=O)c2c(O)cc(O)cc2O[C@@H]1c1ccccc1` [Pinobanksin-3-acetate], the “GTF C sol. % of Inhib.” value (GTF C [1]; 125 μM) was 0.0 (0.0) %, the “GTF C sol. % of Inhib.” value (GTF C [1]; 250 μM) was 3.5 (4.2) % and the “GTF C sol. % of Inhib.” value (GTF C [1]; 500 μM) was 16.7 (4.3) %. For the same compound, the “GTF C surf. % of Inhib.” value (GTF C [2]; 125 μM) was 0.0 (0.1) %, the “GTF C surf. % of Inhib.” value (GTF C [2]; 250 μM) was 0.0 (0.0) % and the “GTF C surf. % of Inhib.” value (GTF C [2]; 500 μM) was 0.0 (3.3) %. The “GTF Ss sol. % of Inhib.” value (GTF Ss [3]; 125 μM) was 4.6 (5.7) %, the “GTF Ss sol. % of Inhib.” value (GTF Ss [3]; 250 μM) was 22.8 (3.6) % and the “GTF Ss sol. % of Inhib.” value (GTF Ss [3]; 500 μM) was 30.5 (7.2) %. For the same compound, the “GTF D surf. % of Inhib.” value (GTF D [4]; 125 μM) was 0.0 (0.0) %, the “GTF D surf. % of Inhib.” value (GTF D [4]; 250 μM) was 4.5 (2.0) % and the “GTF D surf. % of Inhib.” value (GTF D [4]; 500 μM) was 10.1 (2.8) %. For the same compound, the MIC ([5]; all strains tested) was 157 µg/mL, the MIC [5, 13] was 500 µM and the MBC [6] was >500 µM. The MIC [6] was 500 µM (≈ 157 µg/mL), the MBC ([7]; Streptococcus sobrinus 6715) was >500 µM and the MIC ([7]; Streptococcus sobrinus 6715) was 250 µM (≈ 78.6 µg/mL). For the same compound, the MBC [8] was >500 µM, the MIC [8] was 500 µM (≈ 157 µg/mL) and the “GTF B surf. % of Inhib.” value (GTF B [9]; 125 μM) was 9.4 (4.8) %. The “GTF B surf. % of Inhib.” value (GTF B [9]; 250 μM) was 7.3 (2.1) %, the “GTF B surf. % of Inhib.” value (GTF B [9]; 500 μM) was 10.3 (3.5) % and the “GTF Ss surf. % of Inhib.” value (GTF Ss [10]; 125 μM) was 0.0 (0.6) %. For the same compound, the “GTF Ss surf. % of Inhib.” value (GTF Ss [10]; 250 μM) was 0.0 (2.7) %, the “GTF Ss surf. % of Inhib.” value (GTF Ss [10]; 500 μM) was 9.9 (5.9) % and the “GTF B sol. % of Inhib.” value (GTF B [11]; 125 μM) was 0.0 (0.8) %. The “GTF B sol. % of Inhib.” value (GTF B [11]; 250 μM) was 7.7 (3.5) %, the “GTF B sol. % of Inhib.” value (GTF B [11]; 500 μM) was 18.9 (2.8) % and the “GTF D sol. % of Inhib.” value (GTF D [12]; 125 μM) was 5.5 (4.5) %. The “GTF D sol. % of Inhib.” value (GTF D [12]; 250 μM) was 2.7 (3.3) % and the “GTF D sol. % of Inhib.” value (GTF D [12]; 500 μM) was 3.5 (2.1) %.

With `O=C1C[C@@H](c2ccccc2)Oc2cc(O)cc(O)c21` [Pinocembrin] the “GTF C sol. % of Inhib.” value (GTF C [1]; 125 μM) was 0.0 (0.7) %, the “GTF C sol. % of Inhib.” value (GTF C [1]; 250 μM) was 8.5 (3.2) % and the “GTF C sol. % of Inhib.” value (GTF C [1]; 500 μM) was 17.2 (4.2) %. For the same compound, the “GTF C surf. % of Inhib.” value (GTF C [2]; 125 μM) was 0.0 (0.0) %, the “GTF C surf. % of Inhib.” value (GTF C [2]; 250 μM) was 0.4 (0.1) % and the “GTF C surf. % of Inhib.” value (GTF C [2]; 500 μM) was 13.5 (4.9) %. The “GTF Ss sol. % of Inhib.” value (GTF Ss [3]; 125 μM) was 25.7 (4.1) %, the “GTF Ss sol. % of Inhib.” value (GTF Ss [3]; 250 μM) was 32.6 (6.8) % and the “GTF Ss sol. % of Inhib.” value (GTF Ss [3]; 500 μM) was 45.7 (8.3) %. The “GTF D surf. % of Inhib.” value (GTF D [4]; 125 μM) was 0.0 (0.7) %, the “GTF D surf. % of Inhib.” value (GTF D [4]; 250 μM) was 8.2 (2.7) % and the “GTF D surf. % of Inhib.” value (GTF D [4]; 500 μM) was 15.5 (6.2) %. For the same compound, the MIC ([5]; all strains tested) was 64 µg/mL, the MIC [5, 13] was 250 µM and the MBC [6] was >500 µM. The MIC [6] was 250 µM (≈ 64.1 µg/mL), the MBC ([7]; S. sobrinus 6715) was 128 µg/mL and the MBC ([7]; Streptococcus sobrinus 6715) was 500 µM. For the same compound, the MIC ([7]; Streptococcus sobrinus 6715) was 250 µM (≈ 64.1 µg/mL), the MBC [8] was >500 µM and the MIC [8] was 250 µM (≈ 64.1 µg/mL). For the same compound, the “GTF B surf. % of Inhib.” value (GTF B [9]; 125 μM) was 0.7 (3.3) %, the “GTF B surf. % of Inhib.” value (GTF B [9]; 250 μM) was 8.8 (4.3) % and the “GTF B surf. % of Inhib.” value (GTF B [9]; 500 μM) was 18.9 (5.4) %. For the same compound, the “GTF Ss surf. % of Inhib.” value (GTF Ss [10]; 125 μM) was 0.0 (0.2) %, the “GTF Ss surf. % of Inhib.” value (GTF Ss [10]; 250 μM) was 0.0 (4.2) % and the “GTF Ss surf. % of Inhib.” value (GTF Ss [10]; 500 μM) was 10.5 (2.7) %. The “GTF B sol. % of Inhib.” value (GTF B [11]; 125 μM) was 3.7 (5.2) %, the “GTF B sol. % of Inhib.” value (GTF B [11]; 250 μM) was 7.2 (1.6) % and the “GTF B sol. % of Inhib.” value (GTF B [11]; 500 μM) was 15.9 (4.7) %. The “GTF D sol. % of Inhib.” value (GTF D [12]; 125 μM) was 1.5 (0.1) %, the “GTF D sol. % of Inhib.” value (GTF D [12]; 250 μM) was 4.8 (2.7) % and the “GTF D sol. % of Inhib.” value (GTF D [12]; 500 μM) was 14.9 (4.2) %.

In the case of `O=C(O)c1ccc(O)c(O)c1` [Protocatechuic acid], the “effects on GTF enzymes (in words)” value (streptococcal GTFs) is reported as “enhanced” and the MIC ([5]; Streptococcus mutans) is reported as > 500 µM.

In the case of `COc1cc(O)c2c(c1)O[C@H](c1ccc(O)cc1)CC2=O` [Sakuranetin], the MBC [6] is reported as >500 µM, the MIC [6] is reported as >500 µM and the MBC ([7]; Streptococcus sobrinus 6715) is reported as >500 µM. The MIC ([7]; Streptococcus sobrinus 6715) was 500 µM (≈ 143 µg/mL), the MBC [8] was >500 µM and the MIC [8] was >500 µM.

With `COc1cc(C=O)cc(OC)c1O` [Syringaldehyde] the MIC ([5]; Streptococcus mutans) was > 500 µM.

For `COc1cc(C=O)ccc1O` [Vanillin], the MIC [5, 14] was > 500 µM.

`O=C(O)/C=C/c1ccc(O)cc1` [p-Coumaric acid] was tested, and the MIC [5, 14] was > 500 µM.
